Test results reported in patent US20210186903A1, “TREATMENT FOR DEMYELINATING DISEASE” (CAMBRIDGE ENTERPRISE LIMITED, priority 2018, published 2021).
“Also recorded” adds a separate entry of the source.

Assays:
[1] = test system: young adult OPCs (2-3 months old); conditions: T3 40 ng/ml, 9cRA 50 nM, miconazole 1 μM, benztropine 1.5 μM, O4, CNPase, MBP markers
Experimental: Adult rats (2-27 months) were decapitated after lethal injection of phenobarbital into the tail vein. The brains were removed quickly and placed into ice-cold isolation medium (Tab. S3, alternatively Hibernate A (Brainbits). The telencephalon and cerebellum were dissected in isolation medium; meninges, and the olfactory bulb were mechanically removed and the brain tissue was mechanically minced into 1 mm3 pieces. The tissue pieces were spun down at 100 g for 1 min at RT and the tissue was washed in HBSS− (no Mg2+ and Ca2+, Gibco). Each half of the brain was mixed with 5 ml of dissociation solution (34 U/ml papain (Worthington), 20 μg/ml DNAse Type IV (Gibco) in isolation medium). The brain tissue was dissociated on a shaker (50 rpm) 494 for 40 min at 35° C. The digestion was stopped by addition of ice cold HBSS−. The tissue was centrifuged (200 g, 3 min, RT), the supernatant completely aspirated and the tissue resuspended in isolation medium supplemented with 2% B27 and 2 mM sodium-pyruvate (trituration solution). The tissue was allowed to sit in this solution for 5 min. To obtain a single cell suspension the tissue suspension was triturated 10 times using first a 5 ml serological pipette and subsequently three fire polished glass pipettes (opening diameter >0.5 mm). […]

[2] = test system: aged OPCs; experiment: Differentiation assay of cultured aged OPCs; type: cell-based, rat; conditions: for differentiation of aged OPCs: aged OPCs (20-24 months), T3 40 ng/ml, 9cRA 50 nM, miconazole 1 μM, benztropine 1.5 μM
Experimental: Adult rats (2-27 months) were decapitated after lethal injection of phenobarbital into the tail vein. The brains were removed quickly and placed into ice-cold isolation medium (Tab. S3, alternatively Hibernate A (Brainbits). The telencephalon and cerebellum were dissected in isolation medium; meninges, and the olfactory bulb were mechanically removed and the brain tissue was mechanically minced into 1 mm3 pieces. The tissue pieces were spun down at 100 g for 1 min at RT and the tissue was washed in HBSS− (no Mg2+ and Ca2+, Gibco). Each half of the brain was mixed with 5 ml of dissociation solution (34 U/ml papain (Worthington), 20 μg/ml DNAse Type IV (Gibco) in isolation medium). The brain tissue was dissociated on a shaker (50 rpm) 494 for 40 min at 35° C. The digestion was stopped by addition of ice cold HBSS−. The tissue was centrifuged (200 g, 3 min, RT), the supernatant completely aspirated and the tissue resuspended in isolation medium supplemented with 2% B27 and 2 mM sodium-pyruvate (trituration solution). The tissue was allowed to sit in this solution for 5 min. To obtain a single cell suspension the tissue suspension was triturated 10 times using first a 5 ml serological pipette and subsequently three fire polished glass pipettes (opening diameter >0.5 mm). After each trituration step the tissue suspension was allowed to sediment (approximately 1-2 min) and the supernatant (approximately 2 ml), containing the cells, was transferred into a fresh tube. After each round of trituration 2 ml of fresh trituration solution were added. To remove accidentally transferred undigested tissue bits, the collected supernatant was filtered through 70 μm cell strainers into tubes that contained 90% isotonic Percoll (GE Healthcare, 17-0891-01, in 10×PBS pH7.2 (Lifetech). The final volume was topped up with phenol-red free DMEM/F12 with HEPES (Gibco) and mixed to yield a homogenous suspension with a final Percoll concentration of 22.5%. The single cell suspension was separated from remaining debris particles by gradient density centrifugation (800 g, 20 min, RT, without break). The myelin debris and all layers without cells were discarded and the brain cell containing phase (last 2 ml) and cell pellet were resuspended in HBSS+ and combined in a fresh 15 ml tubes and centrifuged (300 g, 5 min, RT). The cell pellet was resuspended in red blood cell lysis buffer (Sigma, R7757) and incubated for 1 min at RT to remove red blood cells. 10 ml of HBSS+ were added to this cell suspension and spun down (300 g, 5 min, RT). The cell pellets were resuspended in 0.5 ml modified Milteny washing buffer (MWB, 2 mM EDTA, 2 mM Na-Pyruvate, 0.5% BSA in PBS, pH 7.3) supplemented with 10 ng/ml human recombinant insulin (Gibco). […]

[3] = test system: aged female SD rats; experiment: Remyelination after ethidium bromide lesion of caudal cerebellar peduncle in aged rats; type: in vivo, rat; conditions: for degree of remyelination versus control animals: aged rats fed ad libitum, metformin 300 mg/kg bodyweight in drinking water from 15 months, lesion at 18 months, assessed 50 days later, rank
Experimental: The animals were housed under standard laboratory conditions on a 12 h light/dark cycle with constant access to food and water. […] For metformin treatment 15 months old female SD rats that were fed ad libitum received metformin (Glucophage) in their drinking water (300 mg/kg bodyweight per day). Metformin treatment was interrupted for two days before and three days after surgery and then commenced to the end of the study (21 days after lesion induction). Fluid consumption was continuously monitored to adapt dosages. For studies involving demyelination, female Sprague Dawley rats (Harlan Laboratories) 18 months of age were used. The rats were anesthetized with buprenorphine (0.03 mg/kg, s.c.) 471 and 2.5% isoflurane. Demyelination was induced by stereotaxic injection of 4 μl of 0.01% ethidium bromide (EB) into the caudal cerebellar peduncles (CCPs), as previously described 28. EB was delivered at a rate of 1 μl/min. After EB delivery the injection needle remained in position for additional 4 min. To assess remyelination the rats were transcardially perfused with 4% glutaraldehyde and 0.4 mM CaCl2) in PBS. The cerebellum was cut in to transverse 1 mm thick sections. The tissue was fixed in 2% osmium-tetroxide at 4° C. overnight, dehydrated through a series of washes in ethanol and propylene-oxide and embedded in resin. From the resin blocks 1 μm thick sections were cut and stained with 1% toluidine blue.

[4] = test system: aged OPCs; experiment: qRT-PCR for OPC genes and Cdkn2a in cultured aged OPCs; type: cell-based, rat; conditions: aged OPCs (≥18 months)
Experimental: After isolation, OPCs were left to recover in OPC medium (60 μg/ml N-Acetyl cysteine (Sigma), 10 μg/ml human recombinant insulin (Gibco), 1 mM sodium pyruvate (Gibco), 50 μg/ml apo-transferrin (Sigma), 16.1 μg/ml putrescine (Sigma), 40 ng/ml sodium selenite (Sigma), 60 ng/ml progesterone (Sigma), 330 μg/ml bovine serum albumin (Sigma)) supplemented with b-FGF and PDGF (30 ng/ml each, Peprotech).
RNA was isolated from freshly purified OPCs or from cultured OPCs according to the Directzol RNA MicroPrep Kit (Zymo Research; R2061). All RNA samples were stored at −80° C. prior to further processing. cDNA was generated using the QuantiTect Reverse Transcription Kit's according to the instructions of the manufacturer (Qiagen; 205310). For RT-qPCR, primers (see Extended Data Tab. 5) were used at a concentration of […]. The efficiency of each primer was greater than […] as determined for each primer pair by serial dilutions of OPC cDNA. cDNA, primers, and the Syber Green Master Mix (Qiagen; 04141) were mixed as instructed by the manufacturer, and RT-qPCR and melting curve analysis were performed on Life Technologies' Quantstudio 6 Flex Real-Time PCR System. Fold changes in gene expression were calculated using the delta delta Ct method in Microsoft Excel. Statistical significance was determined using two-tailed unpaired t-tests assuming equal variances.

[5] = test system: aged OPCs; experiment: Comet assay (DNA damage) of aged OPCs; type: cell-based, rat
Experimental: For comet assays of freshly isolated OPCs approximately 5000 OPCs were resuspended in 100 μl PBS and mixed with 300 μl 1% low melting point agarose (37° C.). Alternatively, when OPCs were cultured prior to the assay, the cells were detached using TrypLE 1× Select (Gibco) for 8 min at 37° C. The comet assay was then performed as described in reference 33. Briefly, OPCs were centrifuged at 300 g for 5 min. at room temperature and the cell pellet was resuspended with 100 μl PBS and then mixed with 300 μl molten low-melting point agarose pre-incubated at 37° C. The cell-agarose suspension was then applied gently onto polysine slides that were pre-treated with 1% agarose and allowed 590 to solidify at 4° C. The slides were submersed in alkaline cell lysis buffer (0.3M NaOH, 100 mM EDTA, 0.1% (w/v) N592 Lauroylsarcosine (Sigma, 61745), 1.2M NaCl in ddH2O) for 16 hours at 4° C. in the dark. […] Finally, electrophoresed and propidium iodide stained DNA was visualized using a Zeiss Axiovision Fluorescence microscope (Carl Zeiss), and 50-100 nuclei per animal were visually scored according to published protocols^34. Statistical significance was determined comparing respective damage categories between experimental groups by a two-tailed unpaired t-test. […]

| SMILES | differentiation of young OPCs [1] | differentiation of aged OPCs [2] | degree of remyelination versus control animals [3] | degree of remyelination versus control animals ([3]; listed as Metformin) | degree of remyelination versus ADF animals ([3]; aged rats, metformin 300 mg/kg in drinking water for three months prior to lesion, compared with alternate day fasting) | proportion of MBP expressing oligodendrocytes with highly arborized morphology ([2]; aged OPCs exposed to metformin, in the presence of pro-differentiation factors) | differentiation of aged OPCs (differentiation potential), agent added before differentiation ([2]; aged OPCs, agent added prior to pro-differentiation compounds / onset of differentiation, Olig2+MBP+ cells) | expression of Cdkn2a (senescence marker) ([4]; 100 μM metformin during first 5 days of culture) | expression of Pdgfra and Ascl1 (OPC self-renewal genes) ([4]; 100 μM metformin during first 5 days of culture with growth factors) | DNA damage, comet assay ([5]; aged OPCs (≥18 months), 100 μM metformin during first 5 days of culture) | hallmarks of aging of aged OPCs ([5]; aged OPCs, DNA damage among the hallmarks) |
| --- | --- | --- | --- | --- | --- | --- | --- | --- | --- | --- | --- |
| CC1=C(/C=C/C(C)=C\C=C\C(C)=C\C(=O)O)C(C)(C)CCC1 [9-cis-retinoic acid] | enhanced differentiation in young | but not aged OPCs | – | – | – | – | – | – | – | – | – |
| CN1[C@@H]2CC[C@H]1C[C@@H](OC(c1ccccc1)c1ccccc1)C2 [benztropine] | enhanced differentiation in young | but not aged OPCs | – | – | – | – | – | – | – | – | – |
| CN(C)C(=N)NC(=N)N [metformin, N,N-dimethylbiguanide] | – | – | enhances remyelination in aged rats | significantly higher compared to control animals | comparable to animals undergoing ADF | significant increase | restores the ability of aged OPCs to differentiate; also recorded: enhanced differentiation of aged OPCs | expressed significantly less Cdkn2a | increased their expression of Pdgfra and Ascl1 | less DNA damage | ameliorates hallmarks of ageing |
